Test results: patent US12428406B2 (PMV Pharmaceuticals, Inc., priority 2019, dated 2025)

Target: T1, p53 Y220C (Homo sapiens, UniProt P04637, Y220C)
T1 construct: The recombinant protein was a truncation mutant containing only amino acids 94-312 of p53; made in house; host or cells: E. coli
Test: In vitro DNA binding activity assay (HTRF / TR-FRET): stabilization of p53 Y220C and increase of its DNA binding activity
Type: biochemical
Details: recombinant His-tagged p53 Y220C DNA binding domain (aa 94-312), biotin-labeled consensus DNA, incubated at 27° C. or 29° C. for 60 min
Description: The ability of a compound of the invention to stabilize p53 Y220C and increase the DNA binding activity of p53 Y220C was measured by a homogeneous time-resolved fluorescence (HTRF) assay. Recombinant His-tagged p53 Y220C used in the HTRF assay was expressed in the bacterium E. coli.
The binding of the recombinant His-tagged p53 Y220C protein and the biotin-labeled consensus DNA was measured using fluorescence resonance energy transfer (FRET). For the FRET assay, the binding between the p53 mutant and the DNA sequence was measured by detecting the fluorescence of the interaction between an anti-His antibody conjugated to allophycocyanin (APC) and streptavidin conjugated to europium to detect the biotin-labeled DNA.
The test compounds were prepared as 4.5 mM stock solutions in dimethyl sulfoxide (DMSO). The compounds of the disclosure were used to test the stabilization of p53 Y220C and increase in DNA binding activity of p53 Y220C. The stock solutions were then serially diluted 3-fold in DMSO, and 1.2 μL of the diluted solutions was added to each well of a 384-well polypropylene black plate.
The test and control samples were spun at 1200 rpm for 1 minute and incubated at room temperature for 15 minutes. […] The plates were spun at 1200 rpm for 1 minute and incubated at room temperature for 20 minutes. The assay signals were monitored by reading excitation at 340 nm, and emission fluorescence at 615 nm and 665 nm on a plate reader.
The percentage of activation of protein DNA binding in the presence of a compound of the invention compared to the absence of the compound was denoted by a SC150 value, which indicated the concentration of the compound required to increase the DNA binding activity by 50%. The SC150 values were calculated using either Prism™ or ActivityBase™.

T1 sequence (P04637 94-312, change not shown): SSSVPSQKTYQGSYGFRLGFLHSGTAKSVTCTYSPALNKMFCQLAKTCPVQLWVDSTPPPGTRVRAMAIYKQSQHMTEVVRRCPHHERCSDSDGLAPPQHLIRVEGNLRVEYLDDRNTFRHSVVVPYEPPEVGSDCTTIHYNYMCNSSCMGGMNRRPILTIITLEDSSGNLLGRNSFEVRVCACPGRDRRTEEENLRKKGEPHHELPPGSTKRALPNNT

SMILES | SC150 (concentration of the compound required to increase the DNA binding activity by 50%)
COc1cc(S(N)(=O)=O)ccc1NCC#Cc1cc2c(N[C@@H]3CCN(C[C@H](COC(C)=O)OC(C)=O)C[C@@H]3F)cccc2n1CC(F)(F)F (racemic) [Compound 799A, (2R)-1-(acetyloxy)-3-[(3RS,4SR)-3-fluoro-4-[(2-{3-[(2-methoxy-4-sulfamoylphenyl)amino]prop-1-yn-1-yl}-1-(2,2,2-trifluoroethyl)-1H-indol-4-yl)amino]piperidin-1-yl]propan-2-yl acetate] | + (+ = 0 μM ≤ SC150 < 0.05 μM)
COc1cc(C(=O)OCC(C)O)ccc1NCC#Cc1cc2c(N[C@H]3CCN(C)C[C@H]3F)cccc2n1CC(F)(F)F (mixture of isomers) [Compound 806A, rac-2-hydroxypropyl 4-{[3-(4-{[(3R,4S)-3-fluoro-1-methylpiperidin-4-yl]amino}-1-(2,2,2-trifluoroethyl)-1H-indol-2-yl)prop-2-yn-1-yl]amino}-3-methoxybenzoate] | + (+ = 0 μM ≤ SC150 < 0.05 μM)
COc1cc(S(C)(=O)=O)ccc1NCC#Cc1cc2c(N[C@H]3CCN(CC(N)=O)C[C@H]3F)cccc2n1CC(F)(F)F (racemic) [Compound 811A, rac-2-[(3R,4S)-3-fluoro-4-[(2-{3-[(4-methanesulfonyl-2-methoxyphenyl)amino]prop-1-yn-1-yl}-1-(2,2,2-trifluoroethyl)-1H-indol-4-yl)amino]piperidin-1-yl]acetamide] | + (+ = 0 μM ≤ SC150 < 0.05 μM)
COCCNC(=O)c1ccc(NCC#Cc2cc3c(N[C@H]4CCN(C)C[C@H]4F)cccc3n2CC(F)(F)F)c(OC)c1 (racemic) [Compound 814A, rac-4-{[3-(4-{[(3R,4S)-3-fluoro-1-methylpiperidin-4-yl]amino}-1-(2,2,2-trifluoroethyl)-1H-indol-2-yl)prop-2-yn-1-yl]amino}-3-methoxy-N-(2-methoxyethyl)benzamide] | + (+ = 0 μM ≤ SC150 < 0.05 μM)
COc1cc(C(=O)N(C)C)ccc1NCC#Cc1cc2c(N[C@H]3CCN(C)C[C@H]3F)cccc2n1CC(F)(F)F (racemic) [Compound 815A, rac-4-{[3-(4-{[(3R,4S)-3-fluoro-1-methylpiperidin-4-yl]amino}-1-(2,2,2-trifluoroethyl)-1H-indol-2-yl)prop-2-yn-1-yl]amino}-3-methoxy-N,N-dimethylbenzamide] | + (+ = 0 μM ≤ SC150 < 0.05 μM)
COCC(O)CNC(=O)c1ccc(NCC#Cc2cc3c(N[C@H]4CCN(C)C[C@H]4F)cccc3n2CC(F)(F)F)c(OC)c1 (mixture of isomers) [Compound 816A] | + (+ = 0 μM ≤ SC150 < 0.05 μM)
COc1cc(C(=O)NC(C)C)ccc1NCC#Cc1cc2c(N[C@H]3CCN(C)C[C@H]3F)cccc2n1CC(F)(F)F (racemic) [Compound 817A, rac-4-{[3-(4-{[(3R,4S)-3-fluoro-1-methylpiperidin-4-yl]amino}-1-(2,2,2-trifluoroethyl)-1H-indol-2-yl)prop-2-yn-1-yl]amino}-3-methoxy-N-(propan-2-yl)benzamide] | + (+ = 0 μM ≤ SC150 < 0.05 μM)
COc1cc(C(=O)NC2CCOCC2)ccc1NCC#Cc1cc2c(N[C@H]3CCN(C)C[C@H]3F)cccc2n1CC(F)(F)F (racemic) [Compound 818A, rac-4-{[3-(4-{[(3R,4S)-3-fluoro-1-methylpiperidin-4-yl]amino}-1-(2,2,2-trifluoroethyl)-1H-indol-2-yl)prop-2-yn-1-yl]amino}-3-methoxy-N-(oxan-4-yl)benzamide] | + (+ = 0 μM ≤ SC150 < 0.05 μM)
COc1cc(S(C)(=O)=O)ccc1NCC#Cc1cc2c(N(C)[C@H]3CCN(C)C[C@H]3F)cccc2n1CC(F)(F)F (racemic) [Compound 831A, rac-N-[(3R,4S)-3-fluoro-1-methylpiperidin-4-yl]-2-{3-[(4-methanesulfonyl-2-methoxyphenyl)amino]prop-1-yn-1-yl}-N-methyl-1-(2,2,2-trifluoroethyl)-1H-indol-4-amine] | + (+ = 0 μM ≤ SC150 < 0.05 μM)

More lines, now with the values ahead:

SC150 (concentration of the compound required to increase the DNA binding activity by 50%) | SMILES
+ (+ = 0 μM ≤ SC150 < 0.05 μM) | CCN1CC[C@H](Nc2cccc3c2cc(C#CCNc2ccc(S(C)(=O)=O)cc2OC)n3CC(F)(F)F)[C@H](F)C1 (racemic) [Compound 820A, rac-N-[(3R,4S)-1-ethyl-3-fluoropiperidin-4-yl]-2-{3-[(4-methanesulfonyl-2-methoxyphenyl)amino]prop-1-yn-1-yl}-1-(2,2,2-trifluoroethyl)-1H-indol-4-amine]
++ (++ = 0.05 μM ≤ SC150 < 0.1 μM) | COc1cc(C(=O)O)ccc1NCC#Cc1cc2c(N[C@H]3CCN(C)C[C@@H]3F)cccc2n1CC(F)(F)F (racemic) [Compound 833A, rac-4-{[3-(4-{[(3R,4R)-3-fluoro-1-methylpiperidin-4-yl]amino}-1-(2,2,2-trifluoroethyl)-1H-indol-2-yl)prop-2-yn-1-yl]amino}-3-methoxybenzoic acid]
+ (+ = 0 μM ≤ SC150 < 0.05 μM) | COc1cc(S(C)(=O)=O)ccc1NCC#Cc1cc2c(N[C@H]3CCN(C)C[C@H]3F)cc(F)cc2n1CC(F)(F)F (racemic) [Compound 836A, rac-6-fluoro-N-[(3R,4S)-3-fluoro-1-methylpiperidin-4-yl]-2-{3-[(4-methanesulfonyl-2-methoxyphenyl)amino]prop-1-yn-1-yl}-1-(2,2,2-trifluoroethyl)-1H-indol-4-amine]
+ (+ = 0 μM ≤ SC150 < 0.05 μM) | COc1cc(S(C)(=O)=O)ccc1NCC#Cc1cc2c(N[C@@H]3CCN(CC(C)O)C[C@@H]3F)cccc2n1CC(F)(F)F (mixture of isomers) [Compound 871A, 1-[(3S,4R)-3-fluoro-4-[(2-{3-[(4-methanesulfonyl-2-methoxyphenyl)amino]prop-1-yn-1-yl}-1-(2,2,2-trifluoroethyl)-1H-indol-4-yl)amino]piperidin-1-yl]propan-2-ol]
+ (+ = 0 μM ≤ SC150 < 0.05 μM) | CCCn1c(C#CCNc2ccc(S(C)(=O)=O)cc2OC)cc2c(N[C@H]3CCN(C[C@@H](O)COC)C[C@H]3F)cccc21 (racemic) [Compound 884A]
+ (+ = 0 μM ≤ SC150 < 0.05 μM) | COc1cc(S(C)(=O)=O)ccc1NCC#Cc1cc2c(N[C@H]3CCN(CC(=O)NCCN(Cc4ccccn4)Cc4ccccn4)C[C@H]3F)cccc2n1CC(F)(F)F (racemic) [Compound 891A, rac-N-(2-{bis[(pyridin-2-yl)methyl]amino}ethyl)-2-[(3R,4S)-3-fluoro-4-[(2-{3-[(4-methanesulfonyl-2-methoxyphenyl)amino]prop-1-yn-1-yl}-1-(2,2,2-trifluoroethyl)-1H-indol-4-yl)amino]piperidin-1-yl]acetamide]
+ (+ = 0 μM ≤ SC150 < 0.05 μM) | COC(=O)c1ccc(NCC#Cc2cc3c(N[C@@H]4CCN(CC(C)O)C[C@@H]4F)cccc3n2CC(F)(F)F)c(OC)c1 (mixture of isomers) [Compound 900A, methyl 4-{[3-(4-{[(3S,4R)-3-fluoro-1-(2-hydroxypropyl)piperidin-4-yl]amino}-1-(2,2,2-trifluoroethyl)-1H-indol-2-yl)prop-2-yn-1-yl]amino}-3-methoxybenzoate]
